Laboratory results reported in PubChem BioAssay (NCI).
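96-well plates; 48 h exposure; 5 concentrations. Endpoints by linear interpolation between flanking doses. Not reached: highest tested concentration assigned. At the GI50, growth is halved. At the TGI there is no net growth.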

Assays:
Test in all cases: NCI-60 cell line screen, 48 h
NCI-H226 lung = test system: NCI-H226 lung
NCI-H23 lung = test system: NCI-H23 lung
NCI-H460 lung = test system: NCI-H460 lung
NCI-H522 lung = test system: NCI-H522 lung
NCI/ADR-RES ovarian = test system: NCI/ADR-RES ovarian
OVCAR-3 ovarian = test system: OVCAR-3 ovarian
OVCAR-4 ovarian = test system: OVCAR-4 ovarian
OVCAR-5 ovarian = test system: OVCAR-5 ovarian
OVCAR-8 ovarian = test system: OVCAR-8 ovarian
PC-3 prostate = test system: PC-3 prostate
RPMI-8226 leukemia = test system: RPMI-8226 leukemia
RXF 393 renal = test system: RXF 393 renal
SF-268 CNS = test system: SF-268 CNS
SF-295 CNS = test system: SF-295 CNS
SF-539 CNS = test system: SF-539 CNS
SK-MEL-2 melanoma = test system: SK-MEL-2 melanoma
SK-MEL-28 melanoma = test system: SK-MEL-28 melanoma
SK-MEL-5 melanoma = test system: SK-MEL-5 melanoma
SK-OV-3 ovarian = test system: SK-OV-3 ovarian
SN12C renal = test system: SN12C renal
SNB-19 CNS = test system: SNB-19 CNS
SNB-75 CNS = test system: SNB-75 CNS
SW-620 colon = test system: SW-620 colon
T-47D breast = test system: T-47D breast
TK-10 renal = test system: TK-10 renal
U251 CNS = test system: U251 CNS
UACC-257 melanoma = test system: UACC-257 melanoma
UACC-62 melanoma = test system: UACC-62 melanoma
UO-31 renal = test system: UO-31 renal

**Q.** `C[C@@H]1COCCN1c1cc(C2([S@@](C)(=N)=O)CC2)nc(-c2ccnc3[nH]ccc23)n1` was tested. Which TGI (NCI-H226 lung) did it give?
**A.** 98.7 µM

**Q.** What about the GI50 (NCI-H23 lung) of the same compound?
**A.** 3.3 µM

**Q.** And the TGI (NCI-H23 lung)?
**A.** 45.2 µM

**Q.** And the GI50 (NCI-H460 lung)?
**A.** 3.09 µM

**Q.** And the TGI (NCI-H460 lung)?
**A.** > 69.8 µM

**Q.** What about the GI50 (NCI-H522 lung) of the same compound?
**A.** 8.05 µM

**Q.** And the TGI (NCI-H522 lung)?
**A.** > 100 µM

**Q.** What about the GI50 (NCI/ADR-RES ovarian) of the same compound?
**A.** 33.9 µM

**Q.** What about the TGI (NCI/ADR-RES ovarian) of the same compound?
**A.** > 100 µM

**Q.** What about the GI50 (OVCAR-3 ovarian) of the same compound?
**A.** 7.07 µM

**Q.** What about the TGI (OVCAR-3 ovarian) of the same compound?
**A.** > 91.1 µM

**Q.** What about the GI50 (OVCAR-4 ovarian) of the same compound?
**A.** 3.41 µM

**Q.** What about the TGI (OVCAR-4 ovarian) of the same compound?
**A.** 63.9 µM

**Q.** What about the GI50 (OVCAR-5 ovarian) of the same compound?
**A.** 5.11 µM

**Q.** What about the TGI (OVCAR-5 ovarian) of the same compound?
**A.** > 100 µM

**Q.** What about the GI50 (OVCAR-8 ovarian) of the same compound?
**A.** 10.9 µM

**Q.** What about the TGI (OVCAR-8 ovarian) of the same compound?
**A.** > 100 µM

**Q.** And the GI50 (PC-3 prostate)?
**A.** 10.3 µM

**Q.** And the TGI (PC-3 prostate)?
**A.** > 100 µM

**Q.** And the GI50 (RPMI-8226 leukemia)?
**A.** 6.21 µM

**Q.** And the TGI (RPMI-8226 leukemia)?
**A.** > 60.9 µM

**Q.** What about the GI50 (RXF 393 renal) of the same compound?
**A.** 2.34 µM

**Q.** What about the TGI (RXF 393 renal) of the same compound?
**A.** 9.68 µM

**Q.** And the GI50 (SF-268 CNS)?
**A.** 9.66 µM

**Q.** What about the TGI (SF-268 CNS) of the same compound?
**A.** > 100 µM

**Q.** And the GI50 (SF-295 CNS)?
**A.** 3.35 µM

**Q.** And the TGI (SF-295 CNS)?
**A.** 32.5 µM

**Q.** What about the GI50 (SF-539 CNS) of the same compound?
**A.** 2.32 µM

**Q.** And the TGI (SF-539 CNS)?
**A.** 10.6 µM

**Q.** What about the GI50 (SK-MEL-2 melanoma) of the same compound?
**A.** 5.61 µM

**Q.** What about the TGI (SK-MEL-2 melanoma) of the same compound?
**A.** 44.9 µM

**Q.** And the GI50 (SK-MEL-28 melanoma)?
**A.** 9.76 µM

**Q.** What about the TGI (SK-MEL-28 melanoma) of the same compound?
**A.** > 88.9 µM

**Q.** What about the GI50 (SK-MEL-5 melanoma) of the same compound?
**A.** 6.87 µM

**Q.** And the TGI (SK-MEL-5 melanoma)?
**A.** 26.4 µM

**Q.** What about the GI50 (SK-OV-3 ovarian) of the same compound?
**A.** 2.95 µM

**Q.** And the TGI (SK-OV-3 ovarian)?
**A.** 27.4 µM

**Q.** What about the GI50 (SN12C renal) of the same compound?
**A.** 6.02 µM

**Q.** And the TGI (SN12C renal)?
**A.** > 100 µM

**Q.** What about the GI50 (SNB-19 CNS) of the same compound?
**A.** 7.72 µM

**Q.** What about the TGI (SNB-19 CNS) of the same compound?
**A.** > 100 µM

**Q.** What about the GI50 (SNB-75 CNS) of the same compound?
**A.** 2.3 µM

**Q.** What about the TGI (SNB-75 CNS) of the same compound?
**A.** 28.6 µM

**Q.** And the GI50 (SW-620 colon)?
**A.** 8 µM

**Q.** And the TGI (SW-620 colon)?
**A.** > 100 µM

**Q.** What about the GI50 (T-47D breast) of the same compound?
**A.** 3.43 µM

**Q.** And the TGI (T-47D breast)?
**A.** 33.4 µM

**Q.** What about the GI50 (TK-10 renal) of the same compound?
**A.** 6.71 µM

**Q.** What about the TGI (TK-10 renal) of the same compound?
**A.** > 71.9 µM

**Q.** And the GI50 (U251 CNS)?
**A.** 12.3 µM

**Q.** What about the TGI (U251 CNS) of the same compound?
**A.** > 100 µM

**Q.** What about the GI50 (UACC-257 melanoma) of the same compound?
**A.** 14.6 µM

**Q.** What about the TGI (UACC-257 melanoma) of the same compound?
**A.** > 100 µM

**Q.** What about the GI50 (UACC-62 melanoma) of the same compound?
**A.** 4.29 µM

**Q.** And the TGI (UACC-62 melanoma)?
**A.** 36.6 µM

**Q.** And the GI50 (UO-31 renal)?
**A.** 4 µM

**Q.** And the TGI (UO-31 renal)?
**A.** 50 µM
